In ChEMBL document CHEMBL1201862, “PubChem BioAssay data set” (2004):
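A five-concentration, 48-hour dose response in 96-well plates underlies each endpoint, interpolated linearly between surrounding concentrations. Here, GI50 denotes the concentration required for 50% inhibition of growth.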 Activity calls are given as the source filed them. Cut-off read from the data, not from the text of the source: active = GI50 up to about 1.1 µM and inactive = higher.

Tests used:
Assay in all cases: NCI tumour cell line growth inhibition, 48 h
[1] = test system: U-251
[2] = test system: NCI-H522
[3] = test system: SNB-19
[4] = test system: HCC 2998
[5] = test system: SF-539
[6] = test system: NCI-H460
[7] = test system: M19-MEL
[8] = test system: MOLT-4
[9] = test system: M14
[10] = test system: SF-268
[11] = test system: RXF 393
[12] = test system: DMS-114
[13] = test system: SK-MEL-2
[14] = test system: HCT-15
[15] = test system: HT-29
[16] = test system: CCRF-CEM
[17] = test system: UACC-62
[18] = test system: LOX IMVI

| SMILES | GI50 [1] | GI50 [2] | GI50 [3] | GI50 [4] | GI50 [5] | GI50 [6] | GI50 [7] | GI50 [8] | GI50 [9] | GI50 [10] | GI50 [11] | GI50 [12] | GI50 [13] | GI50 [14] [µM] | GI50 [15] | GI50 [16] | GI50 [17] | GI50 [18] |
| --- | --- | --- | --- | --- | --- | --- | --- | --- | --- | --- | --- | --- | --- | --- | --- | --- | --- | --- |
| Cc1cc(NS(=O)(=O)c2ccc(Nc3c4ccccc4nc4c(C(=O)NCCN(C)C)ccc(Cl)c34)cc2)no1 | 2.42 µM (inactive) | 0.54 µM (active) | 2.67 µM (inactive) | 3.21 µM (inactive) | 3.14 µM (inactive) | 1.36 µM (inactive) | 3.39 µM (inactive) | 0.28 µM (active) | 5.25 µM (inactive) | 2.15 µM (inactive) | 7.6 µM (inactive) | 0.867 µM (active) | 6.1 µM (inactive) | 5.14 | 2.86 µM (inactive) | 1.28 µM (inactive) | 2.35 µM (inactive) | 1.48 µM (inactive) |
| Nc1nc(NC2C=C(CO)C(O)C2O)c([N+](=O)[O-])c(=O)[nH]1 (stereo unspecified) | > 100 µM (inactive) | > 100 µM (inactive) | > 100 µM (inactive) | > 100 µM (inactive) | > 100 µM (inactive) | > 100 µM (inactive) | > 100 µM (inactive) | > 100 µM (inactive) | > 100 µM (inactive) | > 100 µM (inactive) | > 100 µM (inactive) | > 100 µM (inactive) | > 100 µM (inactive) | > 100 | > 100 µM (inactive) | > 100 µM (inactive) | > 100 µM (inactive) | > 100 µM (inactive) |
